Test results from the C3SDB collision cross section collection.
Where “and” joins values, the source holds several entries; their conditions need not be identical. Identical values can stand only once.

Key:
[1] = instrument: DT, stepped-field
[2] = instrument: DT, single field, calibrated with Agilent tune mix (Agilent)

collision cross section (N2) ([1]; [M+H]+) | collision cross section (N2) ([1]; [M+Na]+) | SMILES | also measured
198.86 Å² | 208.98 Å² | C[N+](C)(C)CCOP(=O)([O-])OP(=O)(O)OC[C@H]1O[C@@H](n2ccc(N)nc2=O)[C@H](O)[C@@H]1O [Cytidine 5'-diphosphocholine] | collision cross section (N2) ([2]; [M+H]+): 197.6 Å²; collision cross section (N2) ([2]; [M-H]-): 200.64 Å²
– | 178.83 Å² | OC[C@H]1O[C@@H](O[C@H]2[C@H](O)[C@@H](O)[C@H](O)O[C@@H]2CO)[C@H](O)[C@@H](O)[C@H]1O [D-Lactose] | collision cross section (N2) ([2]; [M+Na]+): 175.1 Å²
– | 168.23 Å² | N[C@@H](CCC(=O)N[C@@H](CS)C(=O)NCC(=O)O)C(=O)O [Glutathione] | collision cross section (N2) ([2]; [M+H]+): 167.4 Å²
– | 178.02 Å² | OC[C@H]1O[C@H](OC[C@H]2OC(O)[C@H](O)[C@@H](O)[C@@H]2O)[C@H](O)[C@@H](O)[C@@H]1O (some centres undefined) [Isomaltose] | collision cross section (N2) ([2]; [M+Na]+): 177.3 Å²; collision cross section (N2) ([2]; [M-H]-): 171.96 Å²
165.99 Å² | 187.2 Å² | O=c1c(O)c(-c2ccc(O)cc2)oc2cc(O)cc(O)c12 [Kaempferol] | collision cross section (N2) ([2]; [M+H]+): 162.9 Å²; collision cross section (N2) ([2]; [M-H]-): 160.32 Å²
142.63 Å² | – | CCCC[C@H](N)C(=O)O [L-Norleucine] | collision cross section (N2) ([2]; [M-H]-): 129.02 Å²
– | 212.54 Å² | OC[C@H]1O[C@H](O[C@H]2[C@H](O)[C@@H](O)[C@@H](O[C@H]3[C@H](O)[C@@H](O)C(O)O[C@@H]3CO)O[C@@H]2CO)[C@H](O)[C@@H](O)[C@@H]1O (some centres undefined) [Maltotriose] | collision cross section (N2) ([2]; [M+Na]+): 212.7 Å²
155.67 Å² | 162.74 Å² | CC(=O)N[C@H](Cc1c[nH]c2ccccc12)C(=O)O [N-Acetyl-D-tryptophan] | –
– | 143.7 Å² | CC(=O)N[C@@H](CC(=O)O)C(=O)O [N-Acetyl-L-aspartic Acid] | –
– | 149.53 Å² | CSCC[C@H](NC=O)C(=O)O [N-Formyl-L-methionine] | –
154.83 Å² | 163.87 Å² | COc1ccc2cc([C@H](C)C(=O)O)ccc2c1 [Naproxen] | –
167.13 Å² | – | NC(=O)c1ccc[n+]([C@@H]2O[C@H](COP(=O)([O-])O)[C@@H](O)[C@H]2O)c1 [Nicotinamide Mononucleotide] | –
147.46 Å² | 147.22 Å² | N[C@@H](CCOC(=O)CCC(=O)O)C(=O)O [O-Succinyl-L-homoserine] | –
138.85 Å² | 181.87 Å² | O=C(O)c1cc(=O)[nH]c(=O)[nH]1 [Orotic Acid] | –
294.47 Å² and 294.81 Å² | 285.26 Å² and 289.31 Å² | CCCCCCCC/C=C/CCCCCCCC(=O)OC[C@H](COP(=O)(O)OC[C@@H](O)CO)OC(=O)CCCCCCC/C=C/CCCCCCCC [PG(18:1/18:1)] | –
– | 185.22 Å² | CCCCCCCCCCCCCCCC(=O)O [Palmitic Acid] | –

collision cross section (N2) ([1]; [M+H]+) | collision cross section (N2) ([1]; [M+Na]+) | SMILES | also measured
177.25 Å² | 216.16 Å² | CC(=O)[C@H]1CC[C@H]2[C@@H]3CC=C4C[C@@H](O)CC[C@]4(C)[C@H]3CC[C@]12C [Pregnenolone] | collision cross section (N2) ([2]; [M+H]+): 174 Å²; collision cross section (N2) ([2]; [M-H]-): 182.86 Å²
– | 196.63 Å² | CCCCC[C@H](O)/C=C/[C@H]1C(=O)C[C@H](O)[C@@H]1C/C=C\CCCC(=O)O [Prostaglandin D2] | collision cross section (N2) ([2]; [M+Na]+): 192.4 Å²; collision cross section (N2) ([2]; [M-H2O-H]-): 186.17 Å²
166.26 Å² | 181.44 Å² | COc1cc(O)c2c(=O)c(-c3ccc(O)cc3)coc2c1 [Prunetin] | –
138.98 Å² | – | O=C(O)c1cccnc1C(=O)O [Quinolinic Acid] | –
– | 197.87 Å² | CC/C=C\C[C@H](O)/C=C/C=C\C=C\C=C\[C@@H](O)[C@@H](O)C/C=C\CCC(=O)O [Resolvin D1] | –
201.48 Å² | 210.66 Å² | Cc1cc2nc3c(=O)[nH]c(=O)nc-3n(C[C@H](O)[C@H](O)[C@H](O)COP(=O)(O)O)c2cc1C [Riboflavin 5'-Monophosphate] | –
192.43 Å² | 199.4 Å² | Cc1cc2nc3c(=O)[nH]c(=O)nc-3n(C[C@H](O)[C@H](O)[C@H](O)CO)c2cc1C [Riboflavin] | –
187.9 Å² | 208.15 Å² | COc1ccc(-c2cc(=O)c3c(OC)c(OC)c(OC)c(OC)c3o2)cc1 [Tangeritin] | –
– | 202.08 Å² | CCCCC[C@H](O)/C=C/[C@H]1OC(O)C[C@H](O)[C@@H]1C/C=C\CCCC(=O)O (some centres undefined) [Thromboxane B2] | –
181 Å² | 184.12 Å² | NC(=O)[C@@H]1CCCN1C(=O)[C@H](Cc1cnc[nH]1)NC(=O)[C@@H]1CCC(=O)N1 [Thyrotropin-releasing hormone] | –
– | 154.46 Å² | O=c1ccc2ccc(O)cc2o1 [Umbelliferone] | –
169.81 Å² | 175.14 Å² | O=c1ccn([C@@H]2O[C@H](COP(=O)(O)O)[C@@H](O)[C@H]2O)c(=O)[nH]1 [Uridine 5'-Monophosphate] | –
137.54 Å² | – | O=C(O)/C=C/c1cnc[nH]1 [Urocanate] | –
198.66 Å² | – | CC(C)=CCC/C(C)=C/CC/C(C)=C/CC/C(C)=C/CC1=C(C)C(=O)c2ccccc2C1=O [Vitamin K2] | –
145.78 Å² | 159.12 Å² | C[C@@H]1NC(=O)N[C@@H]1CCCCCC(=O)O [d-Desthiobiotin] | –
– | 142.16 Å² | O=P(O)(O)OC[C@H](O)CO [sn-Glycerol 3-phosphate] | –

SMILES | collision cross section (N2) ([1]; [M+H]+) | collision cross section (N2) ([1]; [M+Na]+) | also measured
Cn1cnc(CCN)c1 [1-Methylhistamine] | 122.56 Å² | – | collision cross section (N2) ([2]; [M+H]+): 121.3 Å²
Cn1cncc1CCN [3-Methylhistamine] | 126.53 Å² | – | collision cross section (N2) ([2]; [M+H]+): 123.8 Å²
C[C@]12CCC(=O)C=C1CC[C@@H]1[C@@H]2CC[C@]2(C)C(=O)CC[C@@H]12 [Androstenedione] | 183.95 Å² | 204.73 Å² | collision cross section (N2) ([2]; [M+H]+): 173.3 Å²
CCCCC[C@@H](/C=C/[C@@H]1[C@@H](C/C=C\CCCC(=O)O)[C@@H]2C[C@H]1OO2)OO [Prostaglandin G2] | – | 199.3 Å² | –
C=C(C)[C@H]1Cc2c(ccc3c2O[C@@H]2COc4cc(OC)c(OC)cc4[C@@H]2C3=O)O1 [Rotenone] | 199.63 Å² | 213.17 Å² | –
CN(C)[C@@H]1C(=O)C(C(N)=O)=C(O)[C@@]2(O)C(=O)C3=C(O)c4c(O)cccc4[C@@](C)(O)[C@H]3C[C@@H]12 [Tetracycline] | 198.48 Å² | 212.5 Å² | –
CC(C)[C@]12CC(=O)[C@H](C)[C@H]1C2 [Thujone] | 141.82 Å² | – | –
